From PubChem BioAssay (NCI)
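Five compound concentrations were applied to cells in 96-well plates for 48 hours; endpoints were derived by simple linear interpolation of the resulting dose-response curve. GI50: concentration for 50% inhibition of growth. TGI: concentration producing complete growth inhibition.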

Assays:
Assay in all cases: inhibition of tumour cell growth, NCI panel, 48 h
COLO 205 colon = tested on: COLO 205 colon
EKVX NSCLC = tested on: EKVX NSCLC
HCC-2998 colon = tested on: HCC-2998 colon
IGROV1 ovarian = tested on: IGROV1 ovarian
K-562 leukemia = tested on: K-562 leukemia
NCI-H522 lung = tested on: NCI-H522 lung
RPMI-8226 leukemia = tested on: RPMI-8226 leukemia
SK-MEL-2 melanoma = tested on: SK-MEL-2 melanoma
SK-MEL-28 melanoma = tested on: SK-MEL-28 melanoma
UO-31 renal = tested on: UO-31 renal

SMILES	GI50 (COLO 205 colon) [µM]	TGI (COLO 205 colon) [µM]	GI50 (EKVX NSCLC) [µM]	TGI (EKVX NSCLC) [µM]	GI50 (HCC-2998 colon) [µM]	TGI (HCC-2998 colon) [µM]	GI50 (IGROV1 ovarian) [µM]	TGI (IGROV1 ovarian) [µM]	GI50 (K-562 leukemia) [µM]	TGI (K-562 leukemia) [µM]	GI50 (NCI-H522 lung) [µM]	TGI (NCI-H522 lung) [µM]	GI50 (RPMI-8226 leukemia) [µM]	TGI (RPMI-8226 leukemia) [µM]	GI50 (SK-MEL-2 melanoma) [µM]	TGI (SK-MEL-2 melanoma) [µM]	GI50 (SK-MEL-28 melanoma) [µM]	TGI (SK-MEL-28 melanoma) [µM]	GI50 (UO-31 renal) [µM]	TGI (UO-31 renal) [µM]
C=CC(=O)N1CCN(c2ncnc3c(F)c(-c4c(O)cccc4F)c(Cl)cc23)CC1	17.5	37.5	15.1	28.9	17.5	32.7	11.6	24.8	21.2	> 100	15.6	35.1	5.69	36.6	15	35	13.3	26	14.7	29
COC(=O)/C(=N\NC(=S)NN)C(C(=O)C(=O)Nc1ccccc1C(N)=O)c1nc2ccccc2[nH]c1=O (centres undefined)	–	> 100	–	> 100	–	> 100	–	> 100	–	> 100	–	> 100	–	> 100	–	> 100	–	> 100	–	> 100
CCOc1cccc2nc3cccc(C(=O)NCCN(C)C)c3nc12	–	3.52	–	11.6	–	3.53	–	–	–	2.62	–	> 100	–	6.46	–	3.86	–	3.77	–	> 100
COc1ccc(C(=O)C(C(=O)CCC(=O)Nc2cccc(C(F)(F)F)c2)c2ccccc2)cc1 (centres undefined)	–	> 100	–	> 100	–	> 100	–	> 100	–	> 100	–	> 100	–	> 100	–	> 100	–	> 100	–	> 100
C[C@H]1CCC/C=C/[C@@H]2C[C@H](N)C[C@H]2[C@H](O)/C=C/C(=O)O1	> 100	> 100	> 100	> 100	> 100	> 100	> 100	> 100	> 100	> 100	> 100	> 100	> 100	> 100	> 100	> 100	> 100	> 100	> 100	> 100
Cc1c(C(=O)NN)nnn1-c1ccnc2c(C(F)(F)F)cccc12	> 100	> 100	> 100	> 100	> 100	> 100	> 100	> 100	> 100	> 100	> 100	> 100	> 100	> 100	> 100	> 100	> 100	> 100	> 100	> 100
CNC(=O)c1cc(Oc2ccc(NC(=O)Nc3ccc(Cl)c(OC(F)(F)F)c3)c(F)c2)ccn1	1.14	7.65	1.55	23.6	1.62	7.08	2.3	16.6	1.22	8.22	0.971	14.8	1.32	7.85	1.03	5.86	1.01	4.27	1.07	13.3
C=C(COC(C)=O)CC(/C=C(\C)CCC=C(C)C)OC(C)=O (centres undefined)	–	> 100	–	> 100	–	> 100	–	> 100	–	> 100	–	> 100	–	–	–	> 100	–	> 100	–	> 100
CC/C=C\C/C=C\C1CC(=O)NCCCNCCCCN1 (centres undefined)	–	> 100	–	> 100	–	> 100	–	–	–	–	–	> 100	–	–	–	> 100	–	> 100	–	> 100
CN(C)c1nc(-c2cccs2)n2nc(-c3ccc(Cl)cc3)cc2n1	–	–	4.38	> 100	> 100	> 100	5.28	> 100	> 100	> 100	> 100	> 100	> 100	> 100	9.03	> 100	> 100	> 100	–	–
CN(C)C(=S)/N=c1\ss/c(=N\S(=O)(=O)c2ccccc2)n1-c1ccccc1	–	–	–	> 100	–	> 100	–	> 100	–	> 100	–	> 100	–	> 100	–	> 100	–	> 100	–	> 100
CC1(C)CCc2cc3c(cc2O1)OCCC3=O	–	> 100	–	> 100	–	> 100	–	> 100	–	> 100	–	> 100	–	> 100	–	–	–	–	–	> 100
COc1cc(/C=C/C(=N\NC(=O)c2ccccc2)c2sc(Nc3ccc(Cl)c(Cl)c3)nc2C)ccc1O	–	> 100	–	> 100	–	91.8	–	> 100	–	95.9	–	47.6	–	–	–	64.3	–	> 100	–	77.7
CC(C)(C)C1(O)Cc2ccccc2C(=O)O1 (centres undefined)	–	> 100	–	> 100	–	> 100	–	> 100	–	> 100	–	> 100	–	–	–	> 100	–	> 100	–	> 100
CCN(Cc1c(F)cccc1F)c1ccc(CO)c(Cl)c1	0.387	1.61	–	–	1.15	10.7	0.0401	0.193	0.209	28.2	15.1	38.8	1.1	41.4	14.6	31.8	19.1	52.6	2.3	51.4
CC1=Nc2c(ccc3c2C(=O)c2ccccc2C3=O)NC(c2ccncc2)C1 (centres undefined)	–	–	> 100	> 100	> 100	> 100	–	> 100	–	> 100	–	> 100	89.9	> 100	> 100	> 100	> 100	> 100	–	> 100
NC(CCSCC(F)F)C(=O)O (centres undefined)	–	> 100	–	> 100	–	> 100	–	> 100	–	> 100	–	> 100	–	–	–	–	–	> 100	–	> 100
CCCCCC(C(O)C#N)C(O)(C(F)(F)F)C(F)(F)F (centres undefined)	–	> 10	–	–	–	> 10	–	> 10	–	> 10	–	> 10	–	> 10	–	–	–	> 10	–	–

SMILES	GI50 (COLO 205 colon) [µM]	TGI (COLO 205 colon) [µM]	GI50 (EKVX NSCLC) [µM]	TGI (EKVX NSCLC) [µM]	GI50 (HCC-2998 colon) [µM]	TGI (HCC-2998 colon) [µM]	GI50 (IGROV1 ovarian) [µM]	TGI (IGROV1 ovarian) [µM]	GI50 (K-562 leukemia) [µM]	TGI (K-562 leukemia) [µM]	GI50 (NCI-H522 lung) [µM]	TGI (NCI-H522 lung) [µM]	GI50 (RPMI-8226 leukemia) [µM]	TGI (RPMI-8226 leukemia) [µM]	GI50 (SK-MEL-2 melanoma) [µM]	TGI (SK-MEL-2 melanoma) [µM]	GI50 (SK-MEL-28 melanoma) [µM]	TGI (SK-MEL-28 melanoma) [µM]	GI50 (UO-31 renal) [µM]	TGI (UO-31 renal) [µM]
Cc1ncc([N+](=O)[O-])n1CCNC(=O)CCCCn1ccnc1[N+](=O)[O-]	–	> 100	–	–	–	> 100	–	> 100	–	> 100	–	> 100	–	–	–	> 100	–	–	–	> 100
COC(=O)C(Cc1ccccc1)N/C=C\C(=O)c1ccc(Cl)cc1 (centres undefined)	32.5	> 100	–	–	18.5	40.1	> 100	> 100	54.7	> 100	32.5	> 100	36.7	> 100	59.9	> 100	45.4	> 100	38.4	> 100
Oc1c(Br)cc(CN(Cc2cc(Br)c(O)c(Br)c2)C2CCCCC2)cc1Br	–	> 100	–	> 100	–	–	–	> 100	–	> 100	–	> 100	–	> 100	–	> 100	–	> 100	–	> 100
CCOC(=O)[C@@H](C)C[C@H](Cc1ccccc1)NC(=O)c1csc([C@@H](C[C@H](C(C)C)N(C)C(=O)[C@@H](NC(=O)[C@H]2CCCCN2C)C(C)(C)C)OC(C)=O)n1	< 0.00167	0.00432	< 0.00167	> 16.7	< 0.00167	–	< 0.00167	> 16.7	< 0.00167	> 16.7	< 0.00167	0.0644	< 0.00167	> 6.36	< 0.00167	> 16.7	–	–	0.00297	> 10.8
COc1ccc2c(c1)[C@@]13CCN4CC5=CCO[C@H]6CC(=O)N2[C@H]1[C@H]6[C@H]5C[C@H]43	–	> 100	–	> 100	–	> 100	–	> 100	–	–	–	> 100	–	> 100	–	> 100	–	> 100	–	> 100
Cc1sc(C)c(-c2ccc(CO)o2)c1-c1ccc(CO)o1	–	–	–	–	> 83.9	> 100	0.077	0.472	0.622	> 100	41.9	> 100	13.5	> 100	5.03	> 100	> 100	> 100	28.8	> 100
CCOC(=O)Cc1nc(/C(C#N)=C/c2ccco2)[nH]c(=O)c1C#N	–	> 100	–	> 100	–	> 100	–	> 100	–	> 100	–	> 100	–	> 100	–	> 100	–	–	–	> 100
CNc1nc(NC2CCCC2)nc(Sc2ccc(OC)cc2)n1	> 10	> 10	–	–	> 10	> 10	> 10	> 10	> 10	> 10	> 10	> 10	> 10	> 10	> 10	> 10	> 10	> 10	> 10	> 10
CC(O)CN1C(=O)NC(Cc2ccccc2)C1=O (centres undefined)	–	> 100	–	> 100	–	> 100	–	–	–	–	–	> 100	–	–	–	> 100	–	> 100	–	> 100
CN(C)CCNC(=O)Nc1c(C#N)[n+]([O-])c2cc(Cl)c(Cl)cc2[n+]1[O-]	16.1	46.3	36.8	> 100	27.4	> 100	–	–	29.3	> 100	13.1	35.3	8.65	> 100	15.9	50.6	34.3	> 100	45	> 100
Cc1ccc2/c(=C/c3ccc(N(C)C)cc3)c3cc(-c4ccccc4)[n+](C)n3c2c1	–	–	0.0643	7.95	< 0.0199	0.197	0.501	–	< 0.0255	> 100	0.0547	> 100	–	–	–	–	0.146	3.7	0.92	–
CC1CCCC(C(=O)/C(=C/c2cccc(Cl)c2)C(=O)C(=O)O)C1 (centres undefined)	–	> 100	–	> 100	–	25.4	–	83.5	–	47.4	–	24.7	–	38	–	–	–	> 100	–	> 100
Oc1c2c(c(O)c3ccccc13)=N[C@@H](c1ccccc1)[C@H](c1ccccc1)N=2	–	–	–	–	–	> 100	–	> 100	–	> 100	–	> 100	–	> 100	–	> 100	–	> 100	–	> 100
COc1ccc(-c2cc(-c3cc(Cl)ccc3Cl)nc3nc(=S)[nH]c(N)c23)cc1	85.7	> 100	28.5	> 100	23.1	40.1	9.34	> 100	–	–	28.2	> 100	14.3	> 100	81.7	> 100	99.3	> 100	58.1	> 100
CN1CCN(C)C1c1cccc(C2N(C)CCN2C)c1	–	> 100	–	–	–	> 100	–	> 100	–	> 100	–	> 100	–	> 100	–	> 100	–	> 100	–	> 100
O=c1c2ccccc2c2c3c1cccc3c1cccc3c(=O)c4ccccc4c2c31	–	> 100	–	> 100	–	> 100	–	> 100	–	> 100	–	> 100	–	–	–	> 100	–	> 100	–	> 100
C=C(C)[C@@H]1CC[C@@]2(C(=O)O)CC[C@]3(C)C(CCC4[C@@]5(C)CCC(OS(=O)(=O)c6ccccc6)C(C)(C)C5CC[C@]43C)C12 (some centres undefined)	5.66	18.2	2.58	19.3	2.28	10.5	10.4	31.2	–	–	2.36	13.2	1.69	> 100	4.4	16.3	9.9	22.4	2.79	15.9
